Values of other authors, collected in patent US5756661A, “Pentaclethra macroloba derived substances having insecticide, agglutination and aminopeptidase inhibition activity” (Pioneer Hi-Bred International, Inc., priority 1996, dated 1998).

Tested on: aminopeptidases
Settings: references 13, 1

Row | SMILES | inhibition of the activity of several aminopeptidases
1 | CC(C)C[C@H](NC(=O)[C@@H](O)[C@H](N)Cc1ccccc1)C(=O)O [bestatin] | completely inhibit
2 | CC(C)C[C@@H](N)[C@H](O)C(=O)N[C@H](C(=O)N[C@H](C(=O)N[C@@H](CC(=O)O)C(=O)O)C(C)C)C(C)C [amastatin] | completely inhibit
